Laboratory results taken from ChEMBL document CHEMBL1201862, “PubChem BioAssay data set” (2004).
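Cells were grown in 96-well plates and exposed to each compound for 48 hours at five concentrations; endpoints were interpolated linearly between bracketing concentrations, or set to the highest concentration if not reached. The concentration for 50% growth inhibition is given as GI50.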 Calls of active or inactive are those of the source. No stated cut-off is given here; in the data, active = GI50 up to about 1.1 µM and inactive = higher.

Key:
Assay in all cases: inhibition of tumour cell growth, NCI panel, 48 h
786-0 = system: 786-0
ACHN = system: ACHN
CAKI-1 = system: CAKI-1
DU-145 = system: DU-145
HCT-116 = system: HCT-116
K562 = system: K562
KM12 = system: KM12
LOX IMVI = system: LOX IMVI
MDA-MB-435 = system: MDA-MB-435
NCI-H23 = system: NCI-H23
OVCAR-5 = system: OVCAR-5
RXF 393 = system: RXF 393
SK-MEL-28 = system: SK-MEL-28
SNB-19 = system: SNB-19
SR = system: SR
T47D = system: T47D
U-251 = system: U-251
UACC-62 = system: UACC-62
UO-31 = system: UO-31
NCI-H522 = system: NCI-H522

Measured: GI50

c1ncc(C23C4C5C6C4C2C6C53)[nH]1 (stereo not drawn)
inactive: 786-0 > 100 µM | ACHN > 100 µM | CAKI-1 > 100 µM | DU-145 > 100 µM | HCT-116 > 100 µM | K562 > 100 µM | KM12 > 100 µM | LOX IMVI > 100 µM | MDA-MB-435 > 100 µM | NCI-H23 > 100 µM | OVCAR-5 > 100 µM | RXF 393 > 100 µM | SK-MEL-28 > 100 µM | SNB-19 > 100 µM | SR > 100 µM | T47D > 100 µM | U-251 > 100 µM | UACC-62 > 100 µM | UO-31 > 100 µM

CCOC(=O)C1(C(=O)OCC)CC(=O)[C@@]2(C1)OCC[C@H]1OC(=O)C[C@H]12
inactive: 786-0 > 100 µM | ACHN > 100 µM | CAKI-1 > 100 µM | DU-145 > 100 µM | HCT-116 > 100 µM | KM12 > 100 µM | LOX IMVI > 100 µM | MDA-MB-435 > 100 µM | NCI-H23 > 100 µM | NCI-H522 > 100 µM | OVCAR-5 > 100 µM | SK-MEL-28 > 100 µM | SNB-19 > 100 µM | SR > 100 µM | T47D > 100 µM | U-251 > 100 µM | UACC-62 > 100 µM | UO-31 > 100 µM

Cc1cc2c(c(/C=N/c3ccccc3O)c1)OC1(C=C2)Oc2ccccc2C(=O)N1C (stereo not drawn)
inactive: 786-0 14.4 µM | ACHN 14.2 µM | CAKI-1 13.3 µM | DU-145 14.9 µM | HCT-116 14.3 µM | K562 12.3 µM | KM12 20.8 µM | LOX IMVI 12.8 µM | MDA-MB-435 22.6 µM | NCI-H23 17.8 µM | OVCAR-5 13.2 µM | RXF 393 13 µM | SK-MEL-28 18.3 µM | SNB-19 24.7 µM | SR 15.8 µM | T47D 1.57 µM | U-251 18.2 µM | UACC-62 17.8 µM | UO-31 10.6 µM

O=C1/C(=C/c2ccccc2S)N=C(c2ccccc2)N1c1ccc2c(c1)Sc1cc(N3C(=O)/C(=C/c4ccccc4S)N=C3c3ccccc3)ccc1N2
inactive: 786-0 22.9 µM | ACHN 18.6 µM | CAKI-1 18.7 µM | DU-145 19.2 µM | HCT-116 21.3 µM | K562 22 µM | KM12 34 µM | LOX IMVI 20.3 µM | MDA-MB-435 21.1 µM | OVCAR-5 18.7 µM | SK-MEL-28 21.7 µM | SNB-19 16.7 µM | SR 15.7 µM | T47D 22.7 µM | U-251 19.7 µM | UACC-62 20.1 µM | UO-31 15.8 µM

CC(C(=O)n1ccnc1)N1c2ccccc2Sc2ccccc21 (stereo not drawn)
inactive: 786-0 59.2 µM | ACHN 83.2 µM | DU-145 > 100 µM | HCT-116 > 100 µM | K562 91.2 µM | KM12 71.3 µM | LOX IMVI 82.8 µM | MDA-MB-435 > 100 µM | NCI-H23 78.7 µM | OVCAR-5 65.3 µM | RXF 393 > 100 µM | SK-MEL-28 > 100 µM | SNB-19 > 100 µM | SR 50.1 µM | T47D 39.5 µM | U-251 64.4 µM | UACC-62 > 100 µM | UO-31 70.1 µM

O=c1c(Cc2c(O)ccc3ccccc23)nnc2sc(-c3nn4c(=O)c(Cc5c(O)ccc6ccccc56)nnc4s3)nn12
inactive: 786-0 14.8 µM | ACHN 57.4 µM | CAKI-1 > 100 µM | DU-145 > 100 µM | HCT-116 > 100 µM | K562 > 100 µM | LOX IMVI > 100 µM | MDA-MB-435 > 100 µM | NCI-H23 54.7 µM | OVCAR-5 > 100 µM | RXF 393 22.9 µM | SNB-19 38.5 µM | SR > 100 µM | T47D 37.2 µM | U-251 26.2 µM | UACC-62 29 µM | UO-31 > 100 µM

O=C(O)CC(Sc1ccccc1)c1ccccc1 (stereo not drawn)
inactive: 786-0 > 100 µM | ACHN > 100 µM | CAKI-1 > 100 µM | DU-145 > 100 µM | HCT-116 > 100 µM | K562 > 100 µM | KM12 > 100 µM | LOX IMVI > 100 µM | MDA-MB-435 > 100 µM | NCI-H23 > 100 µM | NCI-H522 > 100 µM | OVCAR-5 > 100 µM | RXF 393 > 100 µM | SK-MEL-28 > 100 µM | SNB-19 > 100 µM | T47D > 100 µM | U-251 > 100 µM | UACC-62 > 100 µM | UO-31 > 100 µM

COc1ccc(C(=O)/C=C/c2ccc(OCCCOc3ccc(/C=C/C(=O)c4ccc(OC)cc4)cc3)cc2)cc1
inactive: 786-0 > 100 µM | ACHN > 100 µM | CAKI-1 > 100 µM | DU-145 > 100 µM | HCT-116 24.7 µM | K562 > 100 µM | KM12 91.2 µM | MDA-MB-435 > 100 µM | OVCAR-5 > 100 µM | RXF 393 > 100 µM | SK-MEL-28 63 µM | SNB-19 > 100 µM | SR > 100 µM | T47D > 100 µM | U-251 > 100 µM | UACC-62 > 100 µM | UO-31 > 100 µM

CSc1ccc(/C=C2\N=C(c3ccccc3)N(c3nc4c(Cl)cc(Cl)cc4s3)C2=O)cc1
inactive: 786-0 25.9 µM | ACHN 27 µM | CAKI-1 31 µM | DU-145 46 µM | HCT-116 19.1 µM | K562 26.7 µM | KM12 23 µM | LOX IMVI 29.9 µM | MDA-MB-435 16.6 µM | OVCAR-5 31.1 µM | RXF 393 41 µM | SK-MEL-28 31.1 µM | SNB-19 28.9 µM | SR 20.9 µM | T47D 38.5 µM | U-251 17.1 µM | UACC-62 24.4 µM | UO-31 22.2 µM

CN(Cc1cnc2nc(N)nc(N)c2n1)c1ccc(C(=O)NCCCS(=O)(=O)O)cc1
inactive: 786-0 > 100 µM | ACHN > 100 µM | DU-145 > 100 µM | HCT-116 83.9 µM | K562 > 100 µM | KM12 > 100 µM | LOX IMVI 75.9 µM | MDA-MB-435 > 100 µM | NCI-H23 > 100 µM | NCI-H522 > 100 µM | OVCAR-5 > 100 µM | SK-MEL-28 > 100 µM | SNB-19 > 100 µM | SR 37.6 µM | T47D > 100 µM | U-251 > 100 µM | UACC-62 > 100 µM | UO-31 > 100 µM

CCOC(=O)c1ccc(NCC#CCN2CCCCC2)cc1
inactive: 786-0 > 100 µM | ACHN 57.5 µM | DU-145 > 100 µM | HCT-116 96.8 µM | K562 26.8 µM | KM12 > 100 µM | LOX IMVI > 100 µM | MDA-MB-435 > 100 µM | NCI-H23 > 100 µM | OVCAR-5 83.6 µM | RXF 393 > 100 µM | SK-MEL-28 > 100 µM | SNB-19 > 100 µM | SR > 100 µM | T47D > 100 µM | U-251 > 100 µM | UACC-62 50.1 µM | UO-31 > 100 µM
